Consider one sequence from PMC5955599, “The HTLV-1 gp21 fusion peptide inhibits antigen specific T-cell activation in-vitro and in mice” (PLoS Pathogens, 2018).

In experiment [1] the test system is human peripheral T lymphocytes. The experiment can be described thus: Cytokine secretion from primary human peripheral T-cells (ELISA). It is filed as cell-based. To be noted: peptide at 10μM, CD3 and CD28 antibodies, media 48 hours following activation, n = 12. The procedure: Fig 4 Primary human T-cell activation is inhibited upon HTLV FP treatment. Human peripheral T lymphocytes were isolated from whole blood and activated using CD3 and CD28 antibodies, in the presence of HTLV FP or HTLV Scr at 10μM. Media was collected 48 hours following activation and secretion of IL2, IFN-γ and IL10 was measured by ELISA assay. […] One-way ANOVA was used for statistical analysis. *P<0.05; ***P<0.001; ns, not significant.
Human peripheral T lymphocytes were isolated from whole blood of healthy adult donors by dextran sedimentation and Ficoll (Sigma) gradient separation followed by depletion of B cells using nylon wool column (Unisorb), to which B cells were adsorbed. Cells were incubated in a complete RPMI growth medium (500 ml RPMI Ca/Mg + heat inactivated FCS (10% final) + 5 ml 200 mM L-Glu (2 mM final) +5 ml […] Na pyruvate (1 mM final) + 5 ml Pen Strep antibiotics) for more than 2 h, and then non-adherent cells were harvested and transferred to a new plate, resulting in ~90% CD3+ T lymphocytes. Cells were then used for in vitro assay, in which […] were plated per well in a 96-well plate and activated using CD3 and CD28 antibodies.
Human peripheral T lymphocytes were isolated from whole blood of healthy donors and were incubated in a complete RPMI growth medium (500 ml RPMI Ca/Mg + heat inactivated FCS (10% final) + 5 ml 200 mM L-Glu (2 mM final) +5 ml […] Na pyruvate (1 mM final) + 5 ml Pen Strep antibiotics). Cells were activated using CD3 and CD28 antibodies, in the presence of relevant peptides at 10μM. Media was collected 48 hours following activation and secretion of IL2 and IFN-γ was determined according to standard protocols from R&D systems.

Experiment [2] concerns primary mouse bone marrow derived macrophages (BMDM). The experiment can be described thus: Cytokine secretion from TLR-ligand stimulated BM-derived macrophages (ELISA). It is filed as cell-based, mouse (C57Bl/6J). To be noted: HTLV FP at 10μM, stimulated by LTA, LPS or PAM3CSK4 (1 μg/ml), n = 3. As for the experimental part:
Mouse Femora and tibiae BM cells were isolated from C57Bl/6J mice and cultured in RPMI medium containing FBS (10%), L-glutamine (1%), sodium pyruvate (1%), Pen-strep (1%), and 10 ng/ml recombinant CSF-1 (Peprotech). At day 3, half the medium was replaced, and on day 7, cells were used for in vitro assay, in which 2*10^5 cells were plated per well in a 24-well plate.
Mouse Femora and tibiae BM cells were collected and cultured in RPMI medium containing FBS (10%), L-glutamine (1%), sodium pyruvate (1%), Pen-strep (1%), and 10 ng/ml recombinant CSF-1 (Peprotech). On day 7, cells were stimulated by either (i) LTA, (ii) LPS, or (iii) PAM3CSK4 (1 μg/ml), in the presence of the HTLV FP at 10μM. Media was collected either 5 hours following activation (for TNF-α detection) or 22 hour following activation (for IL-6 detection) and secretion levels were determined according to standard protocols from R&D systems.
Supplementary file ppat.1007044.s002.tif: S2 Fig BM-derived macrophages activation is not affected by HTLV FP treatment. […] Media was collected either 5 hours following activation (for TNF-α detection) or 22 hour following activation (for IL-6 detection) and cytokines secretion was measured by ELISA assay. […]

Turning to “AVPVAVWLVSALAMGAGVAGGITGSMSLASGKS [HTLV FP, gp21 fusion peptide of HTLV-1, MT-2 isolate]”, in experiment [1], the “IFN-γ secretion, human T-cells” value is “significant reduction in IFN-γ and IL2 secretion”; the “IL2 secretion, human T-cells” value is “significant reduction in IFN-γ and IL2 secretion”; the “IL10 secretion, human T-cells” value is recorded as “elevation in IL10 secretion”. Besides, the “TNFα secretion from BMDM” value in experiment [2] (media 5 hours following activation) is “had no effect on cytokine secretion”. In addition, the “IL6 secretion from BMDM” value in experiment [2] (media 22 hour following activation) is listed as “had no effect on cytokine secretion”.
